The text below walks through data of patent publication US20140135327A1, “N- (2 -AMINOPHENYL) BENZAMIDE DERIVATIVES AS HISTONE DEACETYLASE INHIBITORS” (CANCER RESEARCH TECHNOLOGY LIMITED, priority 2011, published 2014).

pIC50: −log10 of the molar value.

Holding throughout (format): biochemical
One experiment deals with T1, HDAC 7-CAT (Homo sapiens, UniProt Q8WUI4).
T1 construct: For HDAC-4 and 7 only catalytic domains were expressed (HDAC-4 CAT and HDAC-7 CAT); 6xHis; made in house; host or cells: Sf9 cells (baculovirus)
T1 sequence (Q8WUI4 512-865 limits assumed): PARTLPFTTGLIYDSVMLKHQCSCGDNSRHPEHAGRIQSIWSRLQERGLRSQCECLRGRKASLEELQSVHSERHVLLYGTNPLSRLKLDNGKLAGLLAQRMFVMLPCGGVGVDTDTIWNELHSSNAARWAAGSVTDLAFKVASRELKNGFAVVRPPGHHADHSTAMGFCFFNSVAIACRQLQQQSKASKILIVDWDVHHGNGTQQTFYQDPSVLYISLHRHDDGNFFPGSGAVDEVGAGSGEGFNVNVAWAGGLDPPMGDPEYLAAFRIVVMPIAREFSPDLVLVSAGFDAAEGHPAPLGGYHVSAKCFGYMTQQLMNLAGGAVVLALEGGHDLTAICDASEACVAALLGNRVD
As to the kind of experiment: Fluorescence-based HDAC isoform assay with electrophoretic separation, HDAC 7-CAT. The note with it: catalytic domain only, 1 μM FAM-labeled acetylated peptide, 17 h at 25° C. As for the experimental part: (§1) The inhibitory effects of the compounds of Examples 7 and 9 above on HDAC activity were determined using a fluorescence-based assay with electrophoretic separation of substrate and product carried out using a microfluidic system followed by quantitation of fluorescence intensity in the substrate and product peaks.
(§2) The assays were performed using isolated HDAC isoforms that had been expressed as 6×His-tagged fusion proteins in a baculovirus expression system in Sf9 cells. HDACs 1, 2, 3, 6, and 8 were expressed as full length fusion proteins. For HDAC-4 and 7 only catalytic domains were expressed (HDAC-4 CAT and HDAC-7 CAT). The HDAC10 fusion protein was expressed as a carboxy-terminal deletion of 38 amino acids (residues 632-669). HDAC3 was coexpressed with a fragment of the SMRT gene (residues 395-489) to generate enzymatically active protein. Purified proteins were incubated with 1 μM carboxyfluorescein (FAM)-labeled acetylated peptide substrate and test compound for 17 h at 25° C. in HDAC assay buffer containing 100 mM HEPES (pH 7.5), 25 mM KCl, 0.1% BSA, and 0.01% Triton X-100. […] Substrate and product were separated electrophoretically using a Caliper LabChip 3000 system with blue laser excitation and green fluorescence detection (CCD2). The fluorescence intensity in the substrate and product peaks was determined using the Well Analyzer software on the Caliper system. […]

Experiment [1] addresses T2, HDAC 3 (Homo sapiens, UniProt O15379). As to the kind of experiment: Caliper HDAC inhibitor profiling assay (microfluidic mobility-shift), HDAC 3. The note with it: 1 hour at room temperature, read-out: IC50 (μM) HDAC3. As for the experimental part:
The activity of the compounds of the invention against HDAC 3 (Class I) and HDAC 6 (Class II) can be determined using the Caliper Life Sciences HDAC inhibitor profiling assay, which utilises microfluidic mobility-shift detection.
Reaction buffer: 25 mM Tris/Cl, pH 8.0, 137 mM NaCl, 2.7 mM KCl, 1 mM MgCl2, 0.1 mg/ml BSA (fatty acid free).
Stop Buffer: 100 mM HEPES, pH 7.5, 10 mM EDTA, 0.04% Brij-35, 0.25% CR-3, and 2.5 μM Trichostatin A.
Stopped reactions were assembled in microtiter plate wells by adding 1 μL of the inhibitor compound in DMSO, 15 μL 2× Enzyme, and 15 μL 2× peptide. The reactions were incubated for 1 hour at room temperature, stopped with the addition of 45 μL Stop Solution, and read on the LabChip EZ Reader®. The curves were fit with sigmoidal dose response algorithm using GraphPad Prism.

The next experiment concerns the target T3, HDAC 4-CAT (Homo sapiens, UniProt P56524).
T3 construct: For HDAC-4 and 7 only catalytic domains were expressed (HDAC-4 CAT and HDAC-7 CAT); 6xHis; made in house; host or cells: Sf9 cells (baculovirus)
As to the kind of experiment: Fluorescence-based HDAC isoform assay with electrophoretic separation, HDAC 4-CAT. Particulars: catalytic domain only, 1 μM FAM-labeled acetylated peptide, 17 h at 25° C. As for the experimental part:
as §1, §2

Experiment [2] deals with T2, HDAC 3. The experiment is described as follows: Fluorescence-based HDAC isoform assay with electrophoretic separation, HDAC 3 (coexpressed with SMRT fragment). Particulars: HDAC3 coexpressed with SMRT fragment (residues 395-489), 1 μM FAM-labeled acetylated peptide, 17 h at 25° C. As for the experimental part:
as §1, §2

T2 sequence (O15379 whole entry, species assumed): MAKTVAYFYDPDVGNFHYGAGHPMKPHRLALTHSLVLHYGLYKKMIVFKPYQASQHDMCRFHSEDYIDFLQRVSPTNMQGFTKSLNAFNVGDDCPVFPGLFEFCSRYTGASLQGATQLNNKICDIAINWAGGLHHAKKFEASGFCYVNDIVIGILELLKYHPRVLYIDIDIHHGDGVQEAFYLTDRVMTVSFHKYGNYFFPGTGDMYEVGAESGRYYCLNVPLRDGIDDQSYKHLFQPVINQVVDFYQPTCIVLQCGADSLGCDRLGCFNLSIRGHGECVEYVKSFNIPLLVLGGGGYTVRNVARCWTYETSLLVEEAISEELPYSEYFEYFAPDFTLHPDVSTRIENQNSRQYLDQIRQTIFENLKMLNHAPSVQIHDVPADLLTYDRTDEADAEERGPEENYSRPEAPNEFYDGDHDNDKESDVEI
T2 sequence (Q9Y618 395-489 partner limits assumed, species assumed): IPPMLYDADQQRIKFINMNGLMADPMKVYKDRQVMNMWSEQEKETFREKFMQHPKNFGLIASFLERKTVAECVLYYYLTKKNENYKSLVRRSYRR
T3 sequence (P56524 655-1084 limits assumed): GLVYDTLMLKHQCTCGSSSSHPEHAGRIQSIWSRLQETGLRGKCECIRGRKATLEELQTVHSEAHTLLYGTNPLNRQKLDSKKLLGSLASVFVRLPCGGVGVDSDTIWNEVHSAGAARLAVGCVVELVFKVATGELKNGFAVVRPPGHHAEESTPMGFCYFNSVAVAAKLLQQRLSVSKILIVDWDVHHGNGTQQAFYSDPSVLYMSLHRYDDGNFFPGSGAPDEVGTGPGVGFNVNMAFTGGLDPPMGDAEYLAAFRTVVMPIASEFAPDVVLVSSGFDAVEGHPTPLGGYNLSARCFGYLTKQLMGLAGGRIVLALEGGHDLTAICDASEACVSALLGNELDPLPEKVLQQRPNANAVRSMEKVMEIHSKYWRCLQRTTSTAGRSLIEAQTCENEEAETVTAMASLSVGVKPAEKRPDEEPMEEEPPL

In the case of `C=C1CN(Cc2ccc(C(=O)Nc3ccccc3N)cc2)C(CC(=O)O)c2ccccc21` (centres unmarked) [Example 9, [2-(4-{[(2-Aminophenyl)amino]carbonyl}benzyl)-4-methylene-1,2,3,4-tetra hydroisoquinolin-1-yl]acetic acid], the pIC50 is < 4.52 against HDAC 7-CAT, < 4.52 against HDAC 4-CAT and 6.10 on HDAC 3 [2]. Besides, at HDAC 3 [1], the IC50 is 0.78 µM.

Take `C=C1CN(Cc2ccc(C(=O)Nc3ccccc3N)cc2)C(=O)c2ccccc21` [Example 7, N-(2-Aminophenyl)-4-[(4-methylene-1-oxo-3,4-dihydroisoquino-2(1H)-yl)methyl]benzamide]: the negative-log IC50 (pIC50) on HDAC 7-CAT is 5.12; at HDAC 4-CAT, 5.04; on HDAC 3 [2], 7.54. For the same molecule, the IC50 at HDAC 3 [1] was determined as 0.22 µM.

As a reminder, the pIC50 is the negative decadic logarithm of the IC50, by convention in mol/L. Read a high pIC50 as a low IC50. As a reminder, the IC50 is the concentration needed to halve the response being measured.
